Where two headings read alike, the source gives them in different places. *1 amine or outer side, *2 acyl side, *3 side chain or, on linkers, in order; H or OH if unused. Where a SMILES comes first, the peptide text is derived from it. [ ]: non-standard residue; d: D form. The star is where a group is joined. 2Nal = N[CH](Cc1ccc2ccccc2c1)C(=O)O; X1 = CCC(C)C(N[*:1])C(=O)C(=O)[*:2]; Cbz = O=C(OCc1ccccc1)*
How the values were obtained:
[1] = biological target: Cathepsin B (Homo sapiens, UniProt P07858); assay: Cathepsin B enzyme assay; details: Cat B (μM), Ki by Morrison equation; pH 6.0, substrate Z-Phe-Arg-Amc
[2] = test system: EBOV WT (Ebola Wild Type); assay: microbe, parasite or virus in culture; format: cell-based; details: read-out: EBOV WT (μM) (Ebola Wild Type)
[3] = test system: MERS WT; assay: microbe, parasite or virus in culture; format: cell-based
[4] = biological target: Cathepsin L (Homo sapiens, UniProt P07711); assay: Cathepsin L enzyme assay; format: biochemical; details: Ki by Morrison equation; pH 5.5, substrate Z-Phe-Arg-Amc; read-out: Cat L
Text: Two wells contained DMSO only for controls.
Velocity was converted to μM/sec.

[5] = biological target: Cat S (Homo sapiens, UniProt P25774); assay: Cat S inhibition; format: biochemical
[6] = biological target: T1, Cat K (Homo sapiens, UniProt P43235); assay: Cat K inhibition; format: biochemical
T1 sequence (P43235 115-329): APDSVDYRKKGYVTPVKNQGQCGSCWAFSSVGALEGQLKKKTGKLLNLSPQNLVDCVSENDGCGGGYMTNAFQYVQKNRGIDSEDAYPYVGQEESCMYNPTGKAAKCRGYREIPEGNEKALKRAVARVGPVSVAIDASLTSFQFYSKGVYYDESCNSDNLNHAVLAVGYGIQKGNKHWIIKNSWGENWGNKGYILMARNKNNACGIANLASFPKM

[7] = biological target: Calpain; assay: Calpain enzyme assay; format: biochemical; details: Ki by Morrison equation; pH 7.5, 5 mM CaCl2
[8] = test system: Collagen; assay: Fibrosis-Sirius Red Collagen Assay; format: cell-based
[9] = Middle East respiratory syndrome-related coronavirus, read-out: MERS WT (μM)

Chain of Cat S (P25774 115-331): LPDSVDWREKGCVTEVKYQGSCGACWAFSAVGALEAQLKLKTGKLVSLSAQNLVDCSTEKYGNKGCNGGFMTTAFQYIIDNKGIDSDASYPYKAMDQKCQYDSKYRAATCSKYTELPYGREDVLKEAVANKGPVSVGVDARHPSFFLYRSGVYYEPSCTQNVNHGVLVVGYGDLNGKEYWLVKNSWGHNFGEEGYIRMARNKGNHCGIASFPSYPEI
Chain of Cathepsin L (P07711 114-333, species assumed): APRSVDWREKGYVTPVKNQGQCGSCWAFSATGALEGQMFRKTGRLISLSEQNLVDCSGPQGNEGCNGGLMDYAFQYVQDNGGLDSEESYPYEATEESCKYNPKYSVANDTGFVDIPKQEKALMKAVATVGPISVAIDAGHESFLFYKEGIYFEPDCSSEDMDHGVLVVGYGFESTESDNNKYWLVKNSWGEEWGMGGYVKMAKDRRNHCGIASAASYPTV

SMILES | Ki [1] [µM] | IC50 ([2]; Zaire ebolavirus) [µM] | IC50 [3, 9] [µM] | Ki [4] [nM] | Ki [5] [nM] | Ki [6] [nM] | Ki [7] [nM] | IC50 [2] [µM] | IC50 ([3]; read-out: MERS WT) [µM] | IC50 [8] [nM]
CC(NC(=O)C(Cc1cccc2ccccc12)NC(=O)Cc1ccccc1)C(=O)C(=O)NC(Cc1ccccc1)C(=O)NC(C)(C)C(N)=O (centres unmarked) [PHELIX205, N-(1-((1-amino-2-methyl-1-oxopropan-2-yl)amino)-1-oxo-3-phenylpropan-2-yl)-3-(3-(napthalen-1-yl)-2-(2-phenylacetamido)propanamido)-2-oxobutanamide] | 0.977 | 21.9 | > 10 | 70.4 | 229 | 6410 | 12500 | – | – | –
CC(NC(=O)C(Cc1ccccc1F)NC(=O)Cc1ccccc1)C(=O)C(=O)NC(Cc1ccccc1)C(=O)NC(C)(C)C(N)=O (centres unmarked) [PHELIX207, N-(1-((1-amino-2-methyl-1-oxopropan-2-yl)amino)-1-oxo-3-phenylpropan-2-yl)-3-(3-(2-fluorophenyl)-2-(2-phenylacetamido)propanamido)-2-oxobutanamide] | 0.187 | 8.59 | 195 | 15 | 2.6 | 430 | > 10000 | – | – | –
CC(NC(=O)C(Cc1ccc(F)cc1)NC(=O)Cc1ccccc1)C(=O)C(=O)NC(Cc1ccccc1)C(=O)NC(C)(C)C(N)=O (centres unmarked) [PHELIX208, N-(1-((1-amino-2-methyl-1-oxopropan-2-yl)amino)-1-oxo-3-phenylpropan-2-yl)-3-(3-(4-fluorophenyl)-2-(2-phenylacetamido)propanamido)-2-oxobutanamide] | 0.42 | 8.15 | 184 | 15.4 | 3.73 | 1920 | > 10000 | – | – | –
CC(NC(=O)C(Cc1cccc(C(F)(F)F)c1)NC(=O)Cc1ccccc1)C(=O)C(=O)NC(Cc1ccccc1)C(=O)NC(C)(C)C(N)=O (centres unmarked) [PHELIX209, N-(1-((1-amino-2-methyl-1-oxopropan-2-yl)amino)-1-oxo-3-phenylpropan-2-yl)-2-oxo-3-(2-(2-phenylacetamido)-3-(3-(trifluoromethyl)phenyl)propanamido)butanamide] | 0.234 | 7.87 | > 10 | 66.3 | 39.9 | > 10000 | > 10000 | – | – | –
CC(NC(=O)C(Cc1cccc(F)c1)NC(=O)Cc1ccccc1)C(=O)C(=O)NC(Cc1ccccc1)C(=O)NC(C)(C)C(N)=O (centres unmarked) [PHELIX212, N-(1-((1-amino-2-methyl-1-oxopropan-2-yl)amino)-1-oxo-3-phenylpropan-2-yl)-3-(3-(3-fluorophenyl)-2-(2-phenylacetamido)propanamido)-2-oxobutanamide] | 0.231 | 7.41 | 139 | 20.3 | 13.7 | 1200 | > 10000 | – | – | –
CC(C)CC(NC(=O)C(=O)C(C)NC(=O)C(Cc1ccccc1)NC(=O)Cc1ccccc1)C(=O)NC(C)(C)C(N)=O (centres unmarked) [PHELIX214, N-(1-amino-2-methyl-1-oxopropan-2-yl)-4-methyl-2-(2-oxo-3-(3-phenyl-2-(2-phenylacetamido)propanamido)butanamido)pentanamide] | 5.79 | 24.2 | > 10 | 281 | 39.8 | 2460 | 85400 | – | – | –
CC(NC(=O)C(Cc1ccccc1)NC(=O)Cc1ccccc1)C(=O)C(=O)NC(Cc1ccccc1)C(=O)NC(Cc1ccc2ccccc2c1)C(N)=O (centres unmarked) [PHELIX220, N-(1-((1-amino-3-(naphthalen-2-yl)-1-oxopropan-2-yl)amino)-1-oxo-3-phenylpropan-2-yl)-2-oxo-3-(3-phenyl-2-(2-phenylacetamido)propanamido)butanamide] | 5.1 | – | – | 0.05 | 0.22 | 21.9 | > 10000 | 0.06 | 3.15 | –
CC(NC(=O)C(Cc1ccccc1)NC(=O)Cc1ccccc1)C(=O)C(=O)NC(Cc1ccccc1)C(=O)NC(Cc1ccc(C(C)(C)C)cc1)C(N)=O (centres unmarked) [PHELIX221, N-(1-((1-amino-3-(4-(tert-butyl)phenyl)-1-oxopropan-2-yl)amino)-1-oxo-3-phenylpropan-2-yl)-2-oxo-3-(3-phenyl-2-(2-phenylacetamido)propanamido)butanamide] | 3.57 | 0.03 | 1.32 | 0.02 | 0.19 | 13.6 | > 10000 | – | – | –
CC(NC(=O)C(Cc1ccccc1)NC(=O)c1cccc(F)c1)C(=O)C(=O)NC(Cc1ccccc1)C(=O)NC(C)(C)C(N)=O (centres unmarked) [PHELIX222, N-(1-((4-((1-((1-amino-2-methyl-1-oxopropan-2-yl)amino)-1-oxo-3-phenylpropan-2-yl)amino)-3,4-dioxobutan-2-yl)amino)-1-oxo-3-phenylpropan-2-yl)-3-fluorobenzamide] | 1.83 | 5.19 | 151 | 25 | 17.7 | 3320 | > 10000 | – | – | –
CC(NC(=O)C(Cc1ccccc1)NC(=O)c1ccccc1)C(=O)C(=O)NC(Cc1ccccc1)C(=O)NC(C)(C)C(N)=O (centres unmarked) [PHELIX223, N-(1-((4-((1-((1-amino-2-methyl-1-oxopropan-2-yl)amino)-1-oxo-3-phenylpropan-2-yl)amino)-3,4-dioxobutan-2-yl)amino)-1-oxo-3-phenylpropan-2-yl)benzamide] | 0.246 | 5.61 | 35.3 | 19.9 | 4.44 | 281 | > 10000 | – | – | –
Cc1cccc(CC(=O)NC(Cc2ccccc2)C(=O)NC(C)C(=O)C(=O)NC(Cc2ccccc2)C(=O)NC(C)(C)C(N)=O)c1 (centres unmarked) [PHELIX225, N-(1-((1-amino-2-methyl-1-oxopropan-2-yl)amino)-1-oxo-3-phenylpropan-2-yl)-2-oxo-3-(3-phenyl-2-(2-(m-tolyl)acetamido)propanmido)butanamide] | 0.299 | 6.17 | 84.2 | 18.6 | 8.12 | 254 | > 10000 | – | – | –
CC(NC(=O)C(Cc1ccccc1)NC(=O)Cc1cccc(F)c1)C(=O)C(=O)NC(Cc1ccccc1)C(=O)NC(C)(C)C(N)=O (centres unmarked) [PHELIX227, N-(1-((1-amino-2-methyl-1-oxopropan-2-yl)amino)-1-oxo-3-phenylpropan-2-yl)-3-(2-(2-(3-fluorophenyl)acetamido)-3-phenylpropanmido)-2-oxobutanamide] | 0.171 | 16.8 | > 10 | 58.9 | 16.3 | 536 | > 10000 | – | – | –
CC(C)CC(NC(=O)C(Cc1ccccc1)NC(=O)OCc1ccccc1)C(=O)NC(Cc1ccccc1)C(=O)C(=O)NC(CCCNC(=N)N)C(N)=O (centres unmarked) [PHELIX254, benzyl (1-amino-10-benzyl-6-carbamoyl-1-imino-13-isobutyl-8,9,12,15-tetraoxo-17-phenyl-2,7,11,14-tetraazaheptadecan-16-yl)carbamate] | 0.0432 | – | > 30 | 0.71 | – | – | 3.42 | – | – | 3400
CCC(C)C(NC(=O)C(CC(C)C)NC(=O)C(Cc1ccccc1)NC(=O)OCc1ccccc1)C(=O)C(=O)NCC(=O)NC(Cc1ccc2ccccc2c1)C(N)=O (centres unmarked) [PHELIX270, benzyl (1-amino-9-(sec-butyl)-12-isobutyl-2-(naphthalen-2-ylmethyl)-1,4,7,8,11,14-hexaoxo-16-phenyl-3,6,10,13-tetraazahexadecan-15-yl)carbamate] (Cbz-FL[X1]G[2Nal]-NH2; configuration not given here) | > 10 | – | > 30 | 1.82 | – | – | 0.53 | – | – | 3100
CCC(C)C(NC(=O)C(CC(C)C)NC(=O)Cc1ccccc1)C(=O)C(=O)NCC(=O)NC(Cc1ccc2ccccc2c1)C(N)=O (centres unmarked) [PHELIX300, N-(2-((1-amino-3-(naphthalen-2-yl)-1-oxopropan-2-yl)amino)-2-oxoethyl)-4-methyl-3-(4-methyl-2-(2-phenylacetamido)pentanamido)-2-oxohexanamide] | – | – | – | 0.02 | – | – | 0.81 | – | – | 4500
CCC(C)C(NC(=O)C(CC(C)C)NC(=O)OCc1ccccc1)C(=O)C(=O)NCC(=O)N(C)C(Cc1ccccc1)C(N)=O (centres unmarked) [PHELIX319, benzyl (1-((1-((2-((1-amino-1-oxo-3-phenylpropan-2-yl)(methyl)amino)-2-oxoethyl)amino)-4-methyl-1,2-dioxohexan-3-yl)amino)-4-methyl-1-oxopentan-2-yl)carbamate] | 0.456 | – | – | 0.28 | – | – | 0.68 | – | – | 11700

Source: patent publication US20190085024A1, “Alpha-Ketoamide Inhibitors Of Cysteine Proteases” (Phelix Therapeutics, priority 2017, published 2019)
